# Test results reported in paper PMC7321065, “Discovery of New Schiff Bases Tethered Pyrazole Moiety: Design, Synthesis, Biological Evaluation, and Molecular Docking Study as Dual Targeting DHFR/DNA Gyrase Inhibitors with Immunomodulatory Activity” (Molecules, 2020).
# Where two headings read alike, the source gives them in different places.
# Legend:
# Pseudomonas aeruginosa [1] = assay: Inhibition zone, agar plate diffusion; type: cell-based; conditions: read-out: Inhibition zone (IZ)
# Description: (§1) Antimicrobial activities of the newly formed Schiff bases (6a–d, 7a–d, 8a–d, and 9a–d) and reference drugs were evaluated against three Gram-positive, three Gram-negative, and two fungi strain at Al-Azhar University, Cairo, Egypt. The inhibition zones (IZ, in mm ± standard deviation) and the minimal inhibitory concentration (MIC) (μg/mL) were determined by the conventional paper disk diffusion method.
# (§2) In Vitro Antimicrobial Activities
# (§3) The antimicrobial activities inhibition zone (IZ, mm±standard deviation) of pyrazole Schiff bases ( 6a-d , 7a-d, 8a-d and 9a-d ) was measurement according to the agar plate diffusion method. Briefly, 100 µl of the […]
# (§4) […] of each sample (at 0.5 mg/mL) was added to each well (10 mm diameter holes cut in the agar gel). The plates were incubated for 24 h at 37 °C (for bacteria and yeast) and for 72 h at 27 °C (for filamentous fungi), each test was repeated three times. After incubation, the microorganism's growth was observed. […]
# (§5) drugs while Amphotericin B was used as standard antifungal drug. The resulting inhibition zone diameters were measured in millimeters and used as criterion for the antimicrobial activity. Solvent controls (DMSO) were included in every experiment as negative controls. DMSO was used for dissolving […]
# (§6) the tested microorganisms. […]
# Escherichia coli [2] = assay: Inhibition zone, agar plate diffusion; type: cell-based; conditions: read-out: Inhibition zone (IZ)
# Description: as §1, §2, §3, §4, §5, §6
# Bacillus subtilis [3] = assay: Inhibition zone, agar plate diffusion; type: cell-based; conditions: read-out: Inhibition zone (IZ)
# Description: as §1, §2, §3, §4, §5, §6
# Enterococcus faecalis [4] = assay: Inhibition zone, agar plate diffusion; type: cell-based; conditions: read-out: Inhibition zone (IZ)
# Description: as §1, §2, §3, §4, §5, §6
# Salmonella typhi [5] = assay: Inhibition zone, agar plate diffusion; type: cell-based; conditions: Salmonella enterica, St, mm ± standard deviation, sample at 0.5 mg/mL, read-out: Inhibition zone (IZ)
# Description: as §1, §2, §3, §4, §5, §6
# (§7) Bacteria were grown on nutrient agar medium, while fungi and yeast were grown on Sabouraud agar medium. […]
# Fusarium oxysporum [6] = assay: Inhibition zone, agar plate diffusion; type: cell-based; conditions: read-out: Inhibition zone (IZ)
# Description: as §1, §2, §3, §4, §5, §6, §7
# Candida albicans [7] = assay: Inhibition zone, agar plate diffusion; type: cell-based; conditions: read-out: Inhibition zone (IZ)
# Description: as §1, §2, §3, §4, §5, §6, §7
# Staphylococcus aureus [8] = assay: Inhibition zone, agar plate diffusion; type: cell-based; conditions: read-out: Inhibition zone (IZ)
# Description: as §1, §2, §3, §4, §5, §6, §7
# [9] = tested on: P. aeruginosa ATCC BAA-2111; assay: MIC/MBC against MDRB, paper disk diffusion; type: cell-based; conditions: Pseudomonas aeruginosa, ATCCBAA2111
# From the text: (§8) The inhibition zone (IZ, mm±standard deviation) of pyrazole Schiff bases ( 6b, 7b, 7c, 8a, 8d and 9b) was
# (§9) measurement according to the agar plate diffusion method against a panel of multidrug-resistant bacteria
# (MDRB). […]
# E. coli ATCC BAA-196 [10] = assay: MIC/MBC against MDRB, paper disk diffusion; type: cell-based; conditions: Escherichia coli, ATCCBAA196
# From the text: as §8, §9
# (MDRB). […]
# [11] = tested on: S. aureus ATCC 43300 (MRSA); assay: MIC/MBC against MDRB, paper disk diffusion; type: cell-based; conditions: Staphylococcus aureus
# From the text: as §8, §9
# (MDRB). […]
# S. aureus ATCC 33591 [12] = assay: MIC/MBC against MDRB, paper disk diffusion; type: cell-based; conditions: Staphylococcus aureus, ATCC33591
# From the text: as §8, §9
# (MDRB). […]
# [13] = tested on: P. aeruginosa ATCC BAA-2111; assay: Inhibition zone against MDRB, agar plate diffusion; type: cell-based
# S. aureus ATCC 33591 [14] = assay: Inhibition zone against MDRB, agar plate diffusion; type: cell-based
# [15] = tested on: S. aureus ATCC 43300 (MRSA); assay: Inhibition zone against MDRB, agar plate diffusion; type: cell-based
# E. coli ATCC BAA-196 [16] = assay: Inhibition zone against MDRB, agar plate diffusion; type: cell-based
# Fusarium oxysporum [17] = assay: MIC/MFC, paper disk diffusion; type: cell-based; conditions: Fusarium oxysporum
# Description: as §1
# (§10) In Vitro Antimicrobial Activities […]
# (§11) DMSO was used for dissolving […]
# (§12) the tested microorganisms.
# (§13) The minimum inhibitory concentration (MIC), the minimum bactericidal concentration (MBC, µg/ml) and […]
# (§14) and 9b) were determined by the conventional technique termed paper disk diffusion, by applying paper […]
# (§15) Bacteria were grown on nutrient agar medium, while fungi and yeast were grown on Sabouraud agar medium. The purified streptomycin was dissolved in […]
# (§16) inoculated with test organism. Growth inhibition was examined after 24 hr. from incubation at 37 °C for bacteria and after 72 hr. incubation at 27 °C for fungi and yeast. Each test was repeated three times. MIC was expressed as the lowest concentration inhibiting test organism’s growth. […]
# Candida albicans [18] = assay: MIC/MFC, paper disk diffusion; type: cell-based; conditions: Candida albicans
# Description: as §1, §10, §11, §12, §13, §14, §15, §16
# Salmonella typhi [19] = assay: MIC/MBC, paper disk diffusion; type: cell-based; conditions: Salmonella enterica, S. typhi
# Description: as §1, §10, §11, §12, §13, §14, §15, §16
# Pseudomonas aeruginosa [20] = assay: MIC/MBC, paper disk diffusion; type: cell-based; conditions: for MBC: P. aeruginosa
# Description: as §1, §10, §11, §12, §13, §14, §15, §16
# Escherichia coli [21] = assay: MIC/MBC, paper disk diffusion; type: cell-based; conditions: Escherichia coli
# Description: as §1, §10, §11, §12, §13, §14, §15, §16
# Bacillus subtilis [22] = assay: MIC/MBC, paper disk diffusion; type: cell-based
# Description: as §1, §10, §11, §12, §13, §14, §15, §16
# Enterococcus faecalis [23] = assay: MIC/MBC, paper disk diffusion; type: cell-based
# Description: as §1, §10, §11, §12, §13, §14, §15, §16
# Staphylococcus aureus [24] = assay: MIC/MBC, paper disk diffusion; type: cell-based; conditions: Staphylococcus aureus
# Description: as §1, §10, §11, §12, §13, §14, §15, §16
# Vero cells (ATCC CCL-81) = assay: Cytotoxicity on normal cells, MTT assay; type: cell-based, African green monkey; conditions: healthy non-cancer cells
# Description: (§17) 3-[4, 5-Dimethyl-2-thiazolyl)-2, 5-diphenyl-2 H-tetrazolium bromide (MTT) protocol is based on the cleavage of the tetrazolium salt by mitochondrial dehydrogenases in viable cells. Cells were dispensed in a 96 well sterile microplate (5 x 10^4 cells/well), and incubated at 37 °C with series of different concentrations, in DMSO, of each tested compound or Doxorubicin ® (positive control) for 48 h in a serum free medium prior to the MTT assay. After incubation, media were carefully removed, 40 µL of MTT (2.5 mg/mL) were added to each well and then incubated for an additional 4 h. The purple formazan dye crystals were solubilized by the addition of 200 µL of DMSO. The absorbance was measured at 590 nm using a SpectraMax® Paradigm® Multi-Mode microplate reader. The relative cell viability was expressed as the mean percentage of viable cells compared to the untreated control cells.
# (§18) All experiments were conducted in triplicate and repeated in three different days. All the values were represented as mean ± SD. IC 50s were determined by probit analysis using SPSS software program (SPSS
# [25] = tested on: mammary gland breast cancer cell line (MCF-7); assay: Antiproliferative activity, MTT assay; type: cell-based, human; conditions: Homo sapiens, MCF7, 48 h, read-out: IC50 MCF-7
# Description: as §17, §18
# [26] = tested on: hepatocellular carcinoma cell line (HepG2); assay: Antiproliferative activity, MTT assay; type: cell-based, human; conditions: Homo sapiens, HepG2, 48 h, read-out: IC50 HepG-2
# Description: as §17, §18
# [27] = Pa, mm ± standard deviation, sample at 0.5 mg/mL
# [28] = Ec, mm ± standard deviation, sample at 0.5 mg/mL
# [29] = Bs, mm ± standard deviation, sample at 0.5 mg/mL
# [30] = Ef, mm ± standard deviation, sample at 0.5 mg/mL
# [31] = Fo, mm ± standard deviation, sample at 0.5 mg/mL
# [32] = Ca, mm ± standard deviation, sample at 0.5 mg/mL
# [33] = Sa, mm ± standard deviation, sample at 0.5 mg/mL
structure (smiles),measurement,setting,value
"COc1ccc(Nc2n[nH]c(N=Cc3c(C)n(C)n(-c4ccccc4)c3=O)c2C(N)=O)cc1 [6a, 5-((1,5-Dimethyl-3-oxo-2-phenyl-2,3-dihydro-1H-pyrazol-4-yl)methyleneamino)-3-(p-methoxyphenylamino)-1H-pyrazole-4-carboxamide]",zone of inhibition at 500 µg/mL,Pseudomonas aeruginosa [1]; [27],20 ± 0.15 mm
same,zone of inhibition at 500 µg/mL,Escherichia coli [2]; [28],24 ± 0.2 mm
same,zone of inhibition at 500 µg/mL,Bacillus subtilis [3]; [29],21 ± 0.4 mm
same,zone of inhibition at 500 µg/mL,Enterococcus faecalis [4]; [30],21 ± 0.11 mm
same,melting point,,274 to 276 °C
same,zone of inhibition at 500 µg/mL,Salmonella typhi [5],18 ± 0.16 mm
same,zone of inhibition at 500 µg/mL,Fusarium oxysporum [6]; [31],13 ± 0.3 mm
same,zone of inhibition at 500 µg/mL,Candida albicans [7]; [32],22 ± 0.35 mm
same,zone of inhibition at 500 µg/mL,Staphylococcus aureus [8]; [33],25 ± 0.31 mm
"COc1ccc(Nc2n[nH]c(N=Cc3c(C)nn(-c4ccccc4)c3Cl)c2C(N)=O)cc1 [7a, 5-((5-Chloro-3-methyl-1-phenyl-1H-pyrazol-4-yl)methyleneamino)-3-(p-methoxyphenylamino)-1H-pyrazole-4-carboxamide]",zone of inhibition at 500 µg/mL,Pseudomonas aeruginosa [1]; [27],20 ± 0.15 mm
same,zone of inhibition at 500 µg/mL,Escherichia coli [2]; [28],18 ± 0.2 mm
same,zone of inhibition at 500 µg/mL,Bacillus subtilis [3]; [29],20 ± 0.4 mm
same,zone of inhibition at 500 µg/mL,Enterococcus faecalis [4]; [30],21 ± 0.11 mm
same,melting point,,270 to 272 °C
same,zone of inhibition at 500 µg/mL,Salmonella typhi [5],18 ± 0.16 mm
same,zone of inhibition at 500 µg/mL,Fusarium oxysporum [6]; [31],15 ± 0.3 mm
same,zone of inhibition at 500 µg/mL,Candida albicans [7]; [32],13 ± 0.35 mm
same,zone of inhibition at 500 µg/mL,Staphylococcus aureus [8]; [33],19 ± 0.31 mm
"COc1ccc(Nc2n[nH]c(N=Cc3c(C)nn(-c4ccccc4)c3Cl)c2C(=O)Nc2ccc(C)cc2)cc1 [7c, 5-((5-Chloro-3-methyl-1-phenyl-1H-pyrazol-4-yl)methyleneamino)-3-(p-methoxyphenylamino)-N-p-tolyl-1H-pyrazole-4-carboxamide]",zone of inhibition at 500 µg/mL,Pseudomonas aeruginosa [1],27 ± 0.73 mm
same,zone of inhibition at 500 µg/mL,Escherichia coli [2],30 ± 0.29 mm
same,zone of inhibition at 500 µg/mL,Bacillus subtilis [3],32 ± 0.22 mm
same,zone of inhibition at 500 µg/mL,Enterococcus faecalis [4],29 ± 0.17 mm
same,MBC,[9],6.66 µg/mL
same,MIC,[9],4.44 µg/mL
same,MBC,E. coli ATCC BAA-196 [10],14.8 µg/mL
same,MIC,E. coli ATCC BAA-196 [10],7.81 µg/mL
same,MBC,[11],14.8 µg/mL
same,MIC,[11],7.81 µg/mL
same,MBC,S. aureus ATCC 33591 [12],11.1 µg/mL
same,MIC,S. aureus ATCC 33591 [12],5.55 µg/mL
same,Mean Diameter of Inhibition Zone against MDRB,[13],22 ± 0.5 mm
same,Mean Diameter of Inhibition Zone against MDRB,S. aureus ATCC 33591 [14],21 ± 0.19 mm
same,Mean Diameter of Inhibition Zone against MDRB,[15],17 ± 0.37 mm
same,Mean Diameter of Inhibition Zone against MDRB,E. coli ATCC BAA-196 [16],21 ± 0.3 mm
same,MFC,Fusarium oxysporum [17],87.5 µg/mL
same,MIC,Fusarium oxysporum [17],55.5 µg/mL
same,MFC,Candida albicans [18],41.6 µg/mL
same,MIC,Candida albicans [18],31.2 µg/mL
same,MIC,Salmonella typhi [19],31.2 µg/mL
same,MBC,Salmonella typhi [19]; read-out: MBC,56.2 µg/mL
same,MBC,Pseudomonas aeruginosa [20],88.8 µg/mL
same,MIC,Pseudomonas aeruginosa [20]; Pseudomonas aeruginosa,55.5 µg/mL
same,MBC,Pseudomonas aeruginosa [20]; Pseudomonas aeruginosa,59.4 µg/mL
same,MIC,Escherichia coli [21],18.5 µg/mL
same,Fold more potent than Tetracycline (MIC),Bacillus subtilis [22]; B. subtilis,3 fold
same,MBC,Bacillus subtilis [22]; B. subtilis,18.5 µg/mL
same,MIC,Bacillus subtilis [22]; Bacillus subtilis,9.25 µg/mL
same,MBC,"Bacillus subtilis [22]; Bacillus subtilis, B. subtilis",10.6 µg/mL
same,MIC,Enterococcus faecalis [23],7.81 µg/mL
same,MIC,Staphylococcus aureus [24],31.2 µg/mL
same,IC50,"Vero cells (ATCC CCL-81); Chlorocebus sabaeus, Vero, read-out: IC50 Vero, MTT",> 120 µM
same,IC50,"Vero cells (ATCC CCL-81); read-out: IC50 Vero, MTT",213.5 ± 0.57 µM
same,zone of inhibition at 500 µg/mL,Salmonella typhi [5],29 ± 0.2 mm
same,zone of inhibition at 500 µg/mL,Fusarium oxysporum [6],22 ± 0.11 mm
same,zone of inhibition at 500 µg/mL,Candida albicans [7],27 ± 0.5 mm
same,zone of inhibition at 500 µg/mL,Staphylococcus aureus [8],33 ± 0.53 mm
same,IC50,[25],3.24 ± 0.41 µM
same,IC50,[26],1.22 ± 0.23 µM
